Results as given in patent US6555523B1, “Use of cirsiliol and derivatives to treat infections” (priority 1999, dated 2003).
Values after ≈ are worked out from the molar mass of the structure shown. Values joined by “and” are separate entries in the source; they are usually repeats but may differ in a detail not shown here. Equal values may be shown once. Marks after values point to notes of the source that are not given here.

Experiments:
HIV Ba-L = assay: Anti-HIV assay in fresh human monocyte-macrophages (p24 ELISA), Protocol D2; type: cell-based; settings: Human immunodeficiency virus 1, BAL, Macrophage, Protocol D2
Description: Protocol D2—Assay in fresh human monocyte-macrophages. […] The cells are placed in a 96-well microtiter plate at 37° C. for 2 hours. Non-adherent cells are removed by vigorously washing six times. […] The cultures are carefully monitored for confluency during this incubation period. Infection of the cells is performed with monocytotropic HIV-1 isolates. High titer pools of each of these viruses are harvested from infected cultures of peripheral blood adherent cells and frozen in 1.0 ml aliquots at −80° C. Monocytemacrophage monolayers are infected at a multiplicity of infection (“MOI”) of 0.1.
(§1) At 2 days post-infection, the medium is decanted and the cultures washed twice with complete medium in order to remove excess virus. Fresh medium alone or medium containing the appropriate concentration of drug is added and incubation continued for an additional five days. XTT staining for cytotoxicity and HIV p24 ELISA assays for production of p24 core antigen are performed on Day 7 post infection. This is performed according the ELISA kit assay manufacturers recommendations. Control curves are generated in each assay to accurately quantitate the amount of capsid protein in each sample. Data is obtained by spectrophotometric analysis at 450 nm using a Molecular Devices Vmax plate reader. P24 concentrations are calculated form the optical density values by use of the Molecular Device software package Soft Max.
Most of the values were based on average values that were obtained from duplicate or triplicate assay wells.

HIV Merck 52-52 = assay: Anti-HIV assay in fresh human PBL (RT activity), Protocol D1; settings: Human immunodeficiency virus 1, PBMC
HIV clade A UG/93/037 = assay: as above; settings: Human immunodeficiency virus 1, PBMC
HIV clade B BR/92/014 = assay: as above; settings: Human immunodeficiency virus 1, PBMC
HIV Merck 1022-48 = assay: as above; type: cell-based; settings: Human immunodeficiency virus 1, PBMC
HIV Merck 144-44 = assay: as above; settings: Human immunodeficiency virus 1, PBMC
HIV Merck 1002-60 = assay: as above; settings: Human immunodeficiency virus 1, PBMC
HIV Merck 1064-52 = assay: as above; settings: Human immunodeficiency virus 1, PBMC
HIV Merck 1026-60 = assay: as above; settings: Human immunodeficiency virus 1, PBMC
HIV clade F BR/92/021 = assay: as above; settings: Human immunodeficiency virus 1, PBMC
[1] = Drug cytotoxicity by XTT in monocyte-macrophages, Protocol D2; type: cell-based; settings: human; macrophage; Protocol D2; read-out: TC50
Description: Protocol D2—Assay in fresh human monocyte-macrophages. […] The cells are placed in a 96-well microtiter plate at 37° C. for 2 hours. Non-adherent cells are removed by vigorously washing six times. […] The cultures are carefully monitored for confluency during this incubation period. Infection of the cells is performed with monocytotropic HIV-1 isolates. […] Monocytemacrophage monolayers are infected at a multiplicity of infection (“MOI”) of 0.1.
as §1

HIV clade E THA/93/073 = assay: Anti-HIV assay in fresh human PBL (RT activity), Protocol D1; settings: Human immunodeficiency virus 1, PBMC
in vitro [2] = settings: dog
toxoplasma = assay: Inhibition of parasite levels in vivo, mice infected with 20 toxoplasma cysts; set-up: species or system Mice (C57BL/6)
Excerpt: Inhibition of parasite levels in vivo. Mice (C57BL/6) were infected with 20 toxoplasma cysts and then treated with cirsiliol or control vehicle (0.1% DMSO). After the treatment, the level of toxoplasma cysts in the brain was reduced (about 1.5-2 fold) by the cirsiliol treatment compared to the control.

rhinovirus 14 = assay: Anti-picornaviral virus yield assay, Protocol B; type: cell-based, Rhinovirus type 14; settings: Enterovirus
T, gondii RH = assay: In-vitro anti Toxoplasma gondii activity in HFF, Protocol C; type: cell-based
Description: Protocol C—In-vitro testing of anti Toxoplasma gondii activity of Cirsiliol and Naringin. The compounds were tested in an in vitro cell culture assay utilizing human fibroblasts (HFF line) as the host cell. RH strain Toxoplasma gondii that has been transfected with β-galactosidase as a marker for quantitative detection of parasite number (RH Bgal), was used as the challenge organism. The compounds ere dissolved, and then diluted in cell culture medium at least 100 fold for the assays. Controls containing the maximum concentration of solvent used in the assay were run with each test. The active drugs were added and the monolayers were infected immediately at the beginning of each test. Extracellular T. gondii were removed by rinsing the monolayer, and infected host cells remained in contact with the cells for the entire test period. Each test was terminated when at least four parasite doublings could be visually identified in the control monolayers, and parasite numbers were quantitated by standard colorimetric assay for bet galactosidase activity with optical density at 550 nm as the readout. The optical density in this assay has a direct and linear correlation with parasite numbers over a 5-log parasite concentration. Toxicity in the host cells was determined by inspection for cytopathic effects and visual evaluation of cell growth.

[3] = Drug cytotoxicity, Protocol A2 (microscopic); settings: human, Hep2 cell monolayers
Influenza A = assay: CPE-inhibition (microscopic) assay, Protocol A2; type: cell-based; settings: Influenza A virus, MDCK
parainfluenza HA-1 = assay: CPE-inhibition (microscopic) assay, Protocol A2; type: cell-based, parainfluenza virus; settings: HEp-2, cell Hep2 (cell blank for 3-(4′-bromophenyl) coumarin)
HIV ROJO = assay: Anti-HIV assay in fresh human PBL (RT activity), Protocol D1; settings: Human immunodeficiency virus 1, PBMC
in vitro [4] = settings: human, TC50
[5] = Drug cytotoxicity by XTT in PBL, Protocol D1; settings: human, TC50, PBMC, printed on each HIV isolate line
[6] = Drug solubility observed in the BVDV test; settings: BVDV test in MDBK cultures; naringin solvent EtOH
[7] = tested on: Bovine Viral Diarrhea Virus; assay: Plaque formation by Bovine Viral Diarrhea Virus in MDBK cultures; type: cell-based, bovine viral diarrhea virus (BVDV); settings: for % Reduction: plaques; for Number of plaques: Tests 1-3, control 68
Description: HCV in vitro assays. No well-accepted model exists for HCV and new compounds for use in the treatment of HCV are frequently tested for activity against bovine viral diarrhea virus (BVDV), a virus which is related to HCV.
A representative compound according to the present invention, naringin (i.e., 7-neohesperidoside, 5, 4′ dihydroxyflavanone) was tested for anti-BVDV activity in MDBK cells.

MDBK cells = assay: Cytotoxicity in MDBK cultures (BVDV test); settings: at 10.000 μg/mL, no toxicity at lower concentrations
Description: As a comparison, similar tests were conducted using ribavirin.

## COc1ccc(-c2cc(=O)c3c(OC)c(OC)c(OC)c(OC)c3o2)cc1 [Tangeretin, tangeretin]
HIV Ba-L
  IC50: > 100 µM
HIV Merck 52-52
  IC50: 18.2 µM
HIV clade A UG/93/037
  IC50: 19.4 µM
HIV clade B BR/92/014
  IC50: 12.3 µM
HIV Merck 1022-48
  IC50: 20.8 µM
HIV Merck 144-44
  IC50: 14.7 µM
HIV Merck 1002-60
  IC50: 9.7 µM
HIV Merck 1064-52
  IC50: 15 µM
HIV Merck 1026-60
  IC50: 19.8 µM
HIV clade F BR/92/021
  IC50: 15.7 µM
[1]
  CC50 at 7 days: > 100 µM
HIV clade E THA/93/073
  IC50: 15.3 µM

## COc1cc2oc(-c3ccc(O)c(O)c3)cc(=O)c2c(O)c1OC [Cirsiliol, 6,7′-dimethoxy-5,3′,4′-trihydroxyflavone]
In vitro [2]
  CC50: < 6.3 µM
toxoplasma; 8 mice, 21-day post infection follow up, 4 of 8 vehicle control mice died by 15 days
  survival of toxoplasmosis infection: all 8 cirsiliol treated mice survived
toxoplasma; C57BL/6 mice, 20 toxoplasma cysts, control vehicle 0.1% DMSO
  level of toxoplasma cysts in the brain reduced compared to the control: 1.5-2 fold
Rhinovirus 14
  IC50: ~3 µM
T, gondii RH
  IC50: ~2 µM
[3]
  CC50: 12.5 µM
Influenza A
  IC50: > 200 µM
Parainfluenza HA-1
  IC50: 7.8 µM

## O=c1cc(-c2ccccc2)oc2ccc(O)cc12 [6-Hydroxyflavone, 6-hydroxyflavone]
HIV ROJO
  IC50: 41.8 µM
In vitro [4]
  CC50: 53.9 µM

## O=c1oc2ccccc2cc1-c1ccc(Br)cc1 [3-(4′-Bromophenyl) coumarin, 3-(4′-bromophenyl) coumarin]
[3]
  CC50: 100 µM
Parainfluenza HA-1
  IC50: 6.3 µM

## O=c1cc(-c2ccccc2)oc2ccccc12 [Flavone, flavone]
HIV ROJO
  IC50: 86.6 µM
In vitro [4]
  CC50: 173 µM

## COc1ccc([C@@H]2CC(=O)c3c(O)cc(O)cc3O2)cc1O [Hesperetin, hesperetin]
HIV ROJO
  IC50: 134 µM
[5]
  CC50: 190 µM

## NC(=O)c1ncn([C@@H]2O[C@H](CO)[C@@H](O)[C@H]2O)n1 [Ribavirin, ribavirin, reference compound]
[6]
  drug solubility observation: Comment: Positive control drug. Drug was soluble in medium.
[7]; BVDV plaque formation in MDBK, table footnote, unit from the table's concentration head
  ID50: 1.24 µg/mL (≈ 5.08 µM)
[7]; ribavirin 0.320 μg/mL
  % Reduction: 14.10%
  Number of plaques: 55 and 62 and 59
[7]; ribavirin 1.000 μg/mL
  % Reduction: 38.99%
  Number of plaques: 36 and 42 and 47
[7]; ribavirin 3.200 μg/mL
  % Reduction: 93.65%
  Number of plaques: 4 and 5
[7]; ribavirin 10.000 μg/mL, partial toxicity to the cells
  % Reduction: 100.00* %
[7]; ribavirin 10.000 μg/mL
  Number of plaques: 0
MDBK cells
  toxicity to the cells: *Partial toxicity to the cells was observed with no toxicity at lower concentrations
